Assay results published in the NIST ThermoML archive (doi:10.1021/je4003916).

Experiment: xn = mol fraction of the nth substance listed
Conditions: 101 kPa, Liquid; for mass density: Vibrating tube method

C1CCOC1 [tetrahydrofuran] + CCCCO
Conditions | mass density [kg/m3] | viscosity [mPa·s]
288.15 K, x1 = 0.1001 | 820.7 | 2.377
288.15 K, x1 = 0.2003 | 828.11 | 1.788
288.15 K, x1 = 0.3 | 835.61 | 1.416
288.15 K, x1 = 0.4003 | 843.28 | 1.15
288.15 K, x1 = 0.5 | 851.03 | 0.962
288.15 K, x1 = 0.6001 | 858.98 | 0.836
288.15 K, x1 = 0.7003 | 867.19 | 0.723
288.15 K, x1 = 0.8006 | 875.64 | 0.642
288.15 K, x1 = 0.9002 | 884.34 | 0.578
288.15 K, x1 = 1 | 893.29 | 0.522
293.15 K, x1 = 0.1001 | 816.75 | 2.111
293.15 K, x1 = 0.2003 | 823.99 | 1.612
293.15 K, x1 = 0.3 | 831.34 | 1.292
293.15 K, x1 = 0.4003 | 838.84 | 1.061
293.15 K, x1 = 0.5 | 846.43 | 0.895
293.15 K, x1 = 0.6001 | 854.21 | 0.785
293.15 K, x1 = 0.7003 | 862.27 | 0.683
293.15 K, x1 = 0.8006 | 870.54 | 0.61
293.15 K, x1 = 0.9002 | 879.08 | 0.555
293.15 K, x1 = 1 | 887.86 | 0.502
298.15 K, x1 = 0.1001 | 812.77 | 1.882
298.15 K, x1 = 0.2003 | 819.86 | 1.46
298.15 K, x1 = 0.3 | 827.04 | 1.184
298.15 K, x1 = 0.4003 | 834.38 | 0.979
298.15 K, x1 = 0.5 | 841.8 | 0.834
298.15 K, x1 = 0.6001 | 849.43 | 0.736
298.15 K, x1 = 0.7003 | 857.31 | 0.645
298.15 K, x1 = 0.8006 | 865.41 | 0.579
298.15 K, x1 = 0.9002 | 873.78 | 0.528
298.15 K, x1 = 1 | 882.4 | 0.48
303.15 K, x1 = 0.1001 | 808.76 | 1.687
303.15 K, x1 = 0.2003 | 815.69 | 1.331
303.15 K, x1 = 0.3 | 822.71 | 1.087
303.15 K, x1 = 0.4003 | 829.89 | 0.908
303.15 K, x1 = 0.5 | 837.15 | 0.779
303.15 K, x1 = 0.6001 | 844.61 | 0.692
303.15 K, x1 = 0.7003 | 852.32 | 0.61
303.15 K, x1 = 0.8006 | 860.26 | 0.55
303.15 K, x1 = 0.9002 | 868.46 | 0.502
303.15 K, x1 = 1 | 876.91 | 0.459
308.15 K, x1 = 0.1001 | 804.73 | 1.517
308.15 K, x1 = 0.2003 | 811.49 | 1.215
308.15 K, x1 = 0.3 | 818.36 | 1
308.15 K, x1 = 0.4003 | 825.36 | 0.843
308.15 K, x1 = 0.5 | 832.46 | 0.728
308.15 K, x1 = 0.6001 | 839.75 | 0.652
308.15 K, x1 = 0.7003 | 847.3 | 0.576
308.15 K, x1 = 0.8006 | 855.06 | 0.521
308.15 K, x1 = 0.9002 | 863.09 | 0.478
308.15 K, x1 = 1 | 871.38 | 0.44
313.15 K, x1 = 0.1001 | 800.66 | 1.368
313.15 K, x1 = 0.2003 | 807.26 | 1.111
313.15 K, x1 = 0.3 | 813.96 | 0.922
313.15 K, x1 = 0.4003 | 820.81 | 0.782
313.15 K, x1 = 0.5 | 827.74 | 0.681
313.15 K, x1 = 0.6001 | 834.86 | 0.608
313.15 K, x1 = 0.7003 | 842.24 | 0.543
313.15 K, x1 = 0.8006 | 849.83 | 0.494
313.15 K, x1 = 0.9002 | 857.7 | 0.454
313.15 K, x1 = 1 | 865.81 | 0.418
318.15 K, x1 = 0.1001 | 796.55 | 1.238
318.15 K, x1 = 0.2003 | 802.99 | 1.019
318.15 K, x1 = 0.3 | 809.53 | 0.852
318.15 K, x1 = 0.4003 | 816.21 | 0.727
318.15 K, x1 = 0.5 | 822.98 | 0.637
318.15 K, x1 = 0.6001 | 829.93 | 0.571
318.15 K, x1 = 0.7003 | 837.14 | 0.513
318.15 K, x1 = 0.8006 | 844.56 | 0.466
318.15 K, x1 = 0.9002 | 852.25 | 0.428
318.15 K, x1 = 1 | 860.2 | 0.396
323.15 K, x1 = 0.1001 | 792.4 | 1.139
323.15 K, x1 = 0.2003 | 798.67 | 0.949
323.15 K, x1 = 0.3 | 805.05 | 0.795
323.15 K, x1 = 0.4003 | 811.57 | 0.683
323.15 K, x1 = 0.5 | 818.17 | 0.599
323.15 K, x1 = 0.6001 | 824.96 | 0.546
323.15 K, x1 = 0.7003 | 832 | 0.487
323.15 K, x1 = 0.8006 | 839.25 | 0.444
323.15 K, x1 = 0.9002 | 846.77 | 0.41
323.15 K, x1 = 1 | 854.55 | 0.384

COC(=O)CCCCC(=O)OC [dimethyl 1,6-hexanedioate] + CCCCO
viscosity [mPa·s], stabinger viscometer
Conditions | x1 = 0.0999 | x1 = 0.2004 | x1 = 0.2999 | x1 = 0.4003 | x1 = 0.4999 | x1 = 0.6007 | x1 = 0.6996 | x1 = 0.7994 | x1 = 0.8991 | x1 = 1
288.15 K | 2.635 | 2.426 | 2.384 | 2.422 | 2.519 | 2.66 | 2.884 | 3.08 | 3.379 | 3.751
293.15 K | 2.322 | 2.147 | 2.114 | 2.149 | 2.237 | 2.361 | 2.556 | 2.723 | 2.977 | 3.289
298.15 K | 2.057 | 1.911 | 1.886 | 1.92 | 2.003 | 2.11 | 2.287 | 2.425 | 2.649 | 2.91
303.15 K | 1.837 | 1.716 | 1.699 | 1.732 | 1.805 | 1.902 | 2.06 | 2.183 | 2.374 | 2.604
308.15 K | 1.646 | 1.546 | 1.536 | 1.569 | 1.636 | 1.724 | 1.868 | 1.975 | 2.144 | 2.343
313.15 K | 1.481 | 1.4 | 1.396 | 1.428 | 1.491 | 1.572 | 1.704 | 1.797 | 1.947 | 2.121
318.15 K | 1.338 | 1.272 | 1.273 | 1.306 | 1.365 | 1.44 | 1.562 | 1.645 | 1.778 | 1.933
323.15 K | 1.229 | 1.176 | 1.179 | 1.214 | 1.268 | 1.339 | 1.456 | 1.528 | 1.648 | 1.79
